For assay [1], the target named is T1, Trypsin (porcine pancreas, Sigma-Aldrich) (Sus scrofa, UniProt P00761).
T1 construct: purchased Sigma-Aldrich; host or cells: porcine pancreas
Nature of the assay: Trypsin inhibition (IC50 measurement). The format is biochemical. The conditions noted are these: at 1 h; 25°C; hydrolysis followed every 2 min for 1 h; inhibitor from 0 to 81.6 mM (so in the source); tested sample is purified Psp mixture, about 80% Psp A. How it is done: Trypsin (porcine pancreas, Sigma-Aldrich) activity was measured at 25°C in a reaction mixture that contained from 0 to 81.6 mM leupeptin or pseudospumigin A and the hydrolysis was followed at every 2 min for 1 h, as described earlier (Liu et al., [2015]).

In a further assay the test system is trypsin. The conditions noted are these: commercial trypsin inhibitor; ref Aoyagi et al., 1969; Kurinov and Harrison, 1996; cited from earlier work. From the text: Figure 6 Time dependence of trypsin inhibition efficiency (IC50) of pseudospumigin A [•, Psp A (3) + other Psp variants], nostosin A (♦, Ns A) and spumigin E (□, Sp A, from Fewer et al., [2013]). […] Time dependent inhibition is ...

T1 sequence (P00761 9-231): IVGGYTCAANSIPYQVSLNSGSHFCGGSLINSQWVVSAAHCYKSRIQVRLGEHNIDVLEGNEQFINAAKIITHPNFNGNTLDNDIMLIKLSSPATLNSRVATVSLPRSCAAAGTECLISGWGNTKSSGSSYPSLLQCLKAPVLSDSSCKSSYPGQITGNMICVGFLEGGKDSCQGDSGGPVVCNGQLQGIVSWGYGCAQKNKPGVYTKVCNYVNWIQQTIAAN

In the case of `CC[C@H](C)[C@H](NC(=O)[C@@H](CCc1ccc(O)cc1)NC(=O)[C@H](O)Cc1ccc(O)cc1)C(=O)NC(C=O)CCCNC(=N)N` (some centres unmarked) [Pseudospumigin A], the half-maximal inhibitory concentration (IC50) in assay [1] was 4.5 µM.

Ac-Leu-Leu-Argininal [leupeptin]: the “time dependence of trypsin interaction” value in the assay with trypsin was “interacts with trypsin without time dependency”.

Values taken from PMC5640712 (Frontiers in Microbiology, 2017).
